Reference: patent US20160271263A1 (Novo Nordisk A/S, priority 2010, published 2016)

These compounds were tested against glucagon receptor (Homo sapiens, UniProt P47871) (assay: cell-based).
Sequence of glucagon receptor (P47871 26-477): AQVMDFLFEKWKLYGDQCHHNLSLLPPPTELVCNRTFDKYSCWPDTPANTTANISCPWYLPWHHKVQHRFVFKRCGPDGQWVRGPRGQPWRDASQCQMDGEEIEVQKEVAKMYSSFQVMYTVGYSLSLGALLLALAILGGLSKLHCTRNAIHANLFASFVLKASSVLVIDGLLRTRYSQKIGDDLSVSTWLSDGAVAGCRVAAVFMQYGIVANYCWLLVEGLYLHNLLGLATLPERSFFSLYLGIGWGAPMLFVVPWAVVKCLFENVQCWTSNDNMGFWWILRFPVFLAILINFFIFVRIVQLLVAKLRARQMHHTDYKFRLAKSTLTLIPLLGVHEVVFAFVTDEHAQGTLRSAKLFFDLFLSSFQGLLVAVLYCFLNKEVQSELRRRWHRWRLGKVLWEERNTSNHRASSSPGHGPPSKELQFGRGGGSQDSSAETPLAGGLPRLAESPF
Protocol: The cells (14000 per well) were incubated (37° C., 5% CO2) overnight in 384-well plates. Next day the cells were loaded with a calcium responsive dye that only distributed into the cytoplasm. Probenecid, an inhibitor of the organic anion transporter, was added to prevent the dye from leaving the cell. A PDE inhibitor was added to prevent formatted cAMP from being degraded. […] End point data were collected after 6 minutes. An increase in intracellular cAMP was proportional to an increased in calcium concentrations in the cytoplasm. […] EC50-values were calculated in Prism5.

Row | EC50 [nM] | SMILES
1 | 0.189 | CC(C)C[C@H](NC(=O)[C@H](Cc1ccc(O)cc1)NC(=O)[C@H](CCCCN)NC(=O)[C@H](CO)NC(=O)[C@H](Cc1ccc(O)cc1)NC(=O)[C@H](CC(=O)O)NC(=O)[C@H](CO)NC(=O)[C@@H](NC(=O)[C@H](Cc1ccccc1)NC(=O)[C@@H](NC(=O)CNC(=O)[C@H](CCC(N)=O)NC(=O)[C@H](CO)NC(=O)[C@@H](N)Cc1c[nH]cn1)[C@@H](C)O)[C@@H](C)O)C(=O)N[C@@H](CC(=O)O)C(=O)N[C@@H](CO)C(=O)N[C@@H](CCCNC(=N)N)C(=O)N[C@@H](CCCNC(=N)N)C(=O)N[C@@H](C)C(=O)N[C@@H](CCC(N)=O)C(=O)N[C@@H](CC(=O)O)C(=O)N[C@@H](Cc1ccccc1)C(=O)N[C@H](C(=O)N[C@@H](CCC(N)=O)C(=O)N[C@@H](Cc1c[nH]c2ccccc12)C(=O)N[C@@H](CC(C)C)C(=O)N[C@@H](CC(C)C)C(=O)N[C@@H](CCCCNC(=O)CC[C@H](NC(=O)CC[C@H](NC(=O)COCCOCCNC(=O)COCCOCCNC(=O)CC[C@H](NC(=O)CCCCCCCCCCCCCCCCC(=O)O)C(=O)O)C(=O)O)C(=O)O)C(=O)N1CCC[C@H]1C(=O)O)C(C)C [Example 86, N^ε28-[(4S)-4-carboxy-4-[[(4S)-4-carboxy-4-[[2-[2-[2-[[2-[2-[2-[[(4S)-4-carboxy-4-(17-carboxyheptadecanoylamino)butanoyl]amino]ethoxy]ethoxy]acetyl]amino]ethoxy]ethoxy]acetyl]amino]butanoyl]amino]butanoyl]-[Leu^27,Lys^28,Pro^29]-Glucagon]
2 | 2.11 | CC(C)C[C@H](NC(=O)[C@H](Cc1ccc(O)cc1)NC(=O)[C@H](CCCNC(=N)N)NC(=O)[C@H](CO)NC(=O)[C@H](Cc1ccc(O)cc1)NC(=O)[C@H](CC(=O)O)NC(=O)[C@H](CO)NC(=O)[C@@H](NC(=O)[C@H](Cc1ccccc1)NC(=O)[C@@H](NC(=O)CNC(=O)[C@H](CCC(N)=O)NC(=O)[C@H](CO)NC(=O)[C@@H](N)Cc1c[nH]cn1)[C@@H](C)O)[C@@H](C)O)C(=O)N[C@@H](CC(=O)O)C(=O)N[C@@H](CO)C(=O)N[C@@H](CCCNC(=N)N)C(=O)N[C@@H](CCCNC(=N)N)C(=O)N[C@@H](C)C(=O)N[C@@H](CCC(N)=O)C(=O)N[C@@H](CC(=O)O)C(=O)N[C@@H](Cc1ccccc1)C(=O)N[C@H](C(=O)N[C@@H](CCC(N)=O)C(=O)N[C@@H](Cc1c[nH]c2ccccc12)C(=O)N[C@@H](CC(C)C)C(=O)N[C@@H](CCCCNC(=O)CC[C@H](NC(=O)CC[C@H](NC(=O)COCCOCCNC(=O)COCCOCCNC(=O)CC[C@H](NC(=O)CCCCCCCCCCCCCCCCC(=O)O)C(=O)O)C(=O)O)C(=O)O)C(=O)N[C@@H](CC(N)=O)C(=O)N1CCC[C@H]1C(=O)O)C(C)C [Example 87, N^ε27-[(4S)-4-carboxy-4-[[(4S)-4-carboxy-4-[[2-[2-[2-[[2-[2-[2-[[(4S)-4-carboxy-4-(17-carboxyheptadecanoylamino)butanoyl]amino]ethoxy]ethoxy]acetyl]amino]ethoxy]ethoxy]acetyl]amino]butanoyl]amino]butanoyl]-[Arg^12,Lys^27,Pro^29]-Glucagon]
3 | 0.053 | CC(C)C[C@H](NC(=O)[C@H](Cc1ccc(O)cc1)NC(=O)[C@H](CCCCN)NC(=O)[C@H](CO)NC(=O)[C@H](Cc1ccc(O)cc1)NC(=O)[C@H](CC(=O)O)NC(=O)[C@H](CO)NC(=O)[C@@H](NC(=O)[C@H](Cc1ccccc1)NC(=O)[C@@H](NC(=O)CNC(=O)[C@H](CCC(N)=O)NC(=O)[C@H](CO)NC(=O)[C@@H](N)Cc1c[nH]cn1)[C@@H](C)O)[C@@H](C)O)C(=O)N[C@@H](CC(=O)O)C(=O)N[C@@H](CO)C(=O)N[C@@H](CCCNC(=N)N)C(=O)N[C@@H](CCCNC(=N)N)C(=O)N[C@@H](C)C(=O)N[C@@H](CCC(N)=O)C(=O)N[C@@H](CCC(=O)O)C(=O)N[C@@H](Cc1ccccc1)C(=O)N[C@H](C(=O)N[C@@H](CCCCNC(=O)CC[C@H](NC(=O)CC[C@H](NC(=O)COCCOCCNC(=O)CC[C@H](NC(=O)CCCCCCCCCCCCCCCCC(=O)O)C(=O)O)C(=O)O)C(=O)O)C(=O)N[C@@H](Cc1c[nH]c2ccccc12)C(=O)N[C@@H](CC(C)C)C(=O)N[C@@H](CC(C)C)C(=O)N[C@@H](CO)C(=O)N[C@H](C(=O)O)[C@@H](C)O)C(C)C [Example 91, N^ε24-[(4S)-4-carboxy-4-[[(4S)-4-carboxy-4-[[2-[2-[2-[[(4S)-4-carboxy-4-(17-carboxyheptadecanoylamino)butanoyl]amino]ethoxy]ethoxy]acetyl]amino]butanoyl]amino]butanoyl]-[Glu21,Lys24,Leu27,Ser28]-Glucagon]
4 | 2.2 | CC(C)C[C@H](NC(=O)[C@H](Cc1ccc(O)cc1)NC(=O)[C@H](CCCCN)NC(=O)[C@H](CO)NC(=O)[C@H](Cc1ccc(O)cc1)NC(=O)[C@H](CCC(=O)O)NC(=O)[C@H](CO)NC(=O)[C@@H](NC(=O)[C@H](Cc1ccccc1)NC(=O)[C@@H](NC(=O)CNC(=O)[C@H](CCC(N)=O)NC(=O)[C@H](CO)NC(=O)[C@@H](N)Cc1c[nH]cn1)[C@@H](C)O)[C@@H](C)O)C(=O)N[C@@H](CC(=O)O)C(=O)N[C@@H](CO)C(=O)N[C@@H](CCCNC(=N)N)C(=O)N[C@@H](CCCNC(=N)N)C(=O)N[C@@H](C)C(=O)N[C@@H](CCC(N)=O)C(=O)N[C@@H](CC(=O)O)C(=O)N[C@@H](Cc1ccccc1)C(=O)N[C@H](C(=O)N[C@@H](CCCCNC(=O)CC[C@H](NC(=O)CC[C@H](NC(=O)COCCOCCNC(=O)CC[C@H](NC(=O)CCCCCCCCCCCCCCCCC(=O)O)C(=O)O)C(=O)O)C(=O)O)C(=O)N[C@@H](Cc1c[nH]c2ccccc12)C(=O)N[C@@H](CC(C)C)C(=O)N[C@@H](CC(C)C)C(=O)N[C@@H](CO)C(=O)N[C@H](C(=O)O)[C@@H](C)O)C(C)C [Example 92, N^ε24-[(4S)-4-carboxy-4-[[(4S)-4-carboxy-4-[[2-[2-[2-[[(4S)-4-carboxy-4-(17-carboxyheptadecanoylamino)butanoyl]amino]ethoxy]ethoxy]acetyl]amino]butanoyl]amino]butanoyl]-[Glu^9,Lys^24,Leu^27,Ser^28]-Glucagon]

Further lines, the compound ahead of its results:

Row | SMILES | EC50 [nM]
5 | CC(C)C[C@H](NC(=O)[C@H](Cc1ccc(O)cc1)NC(=O)[C@H](CCCCN)NC(=O)[C@H](CO)NC(=O)[C@H](Cc1ccc(O)cc1)NC(=O)[C@H](CC(=O)O)NC(=O)[C@H](CO)NC(=O)[C@@H](NC(=O)[C@H](Cc1ccccc1)NC(=O)[C@@H](NC(=O)CNC(=O)[C@H](CCC(N)=O)NC(=O)[C@H](CO)NC(=O)[C@@H](N)Cc1c[nH]cn1)[C@@H](C)O)[C@@H](C)O)C(=O)N[C@@H](CC(=O)O)C(=O)N[C@@H](CO)C(=O)N[C@@H](CCCNC(=N)N)C(=O)N[C@@H](CCCNC(=N)N)C(=O)N[C@@H](C)C(=O)N[C@@H](CCC(N)=O)C(=O)N[C@@H](CC(=O)O)C(=O)N[C@@H](Cc1ccccc1)C(=O)N[C@H](C(=O)N[C@@H](CCCCNC(=O)CC[C@H](NC(=O)CC[C@H](NC(=O)COCCOCCNC(=O)COCCOCCNC(=O)CC[C@H](NC(=O)CCCCCCCCCCCCCCCCC(=O)O)C(=O)O)C(=O)O)C(=O)O)C(=O)N[C@@H](Cc1c[nH]c2ccccc12)C(=O)N[C@@H](CC(C)C)C(=O)N[C@@H](CC(C)C)C(=O)N[C@@H](CC(N)=O)C(=O)N1CCC[C@H]1C(=O)O)C(C)C [Example 81, N^ε24-[(4S)-4-carboxy-4-[[(4S)-4-carboxy-4-[[2-[2-[2-[[2-[2-[2-[[(4S)-4-carboxy-4-(17-carboxyheptadecanoylamino)butanoyl]amino]ethoxy]ethoxy]acetyl]amino]ethoxy]ethoxy]acetyl]amino]butanoyl]amino]butanoyl]-[Lys^24,Leu^27,Pro^29]-Glucagon] | 0.156
6 | CC(C)C[C@H](NC(=O)[C@H](Cc1ccc(O)cc1)NC(=O)[C@H](CCCCN)NC(=O)[C@H](CO)NC(=O)[C@H](Cc1ccc(O)cc1)NC(=O)[C@H](CC(=O)O)NC(=O)[C@H](CO)NC(=O)[C@@H](NC(=O)[C@H](Cc1ccccc1)NC(=O)[C@@H](NC(=O)CNC(=O)[C@H](CCC(N)=O)NC(=O)[C@H](CO)NC(=O)[C@@H](N)Cc1c[nH]cn1)[C@@H](C)O)[C@@H](C)O)C(=O)N[C@@H](CC(=O)O)C(=O)N[C@@H](CO)C(=O)N[C@@H](CCCNC(=N)N)C(=O)N[C@@H](CCCNC(=N)N)C(=O)N[C@@H](C)C(=O)N[C@@H](CCC(N)=O)C(=O)N[C@@H](CC(=O)O)C(=O)N[C@@H](Cc1ccccc1)C(=O)N[C@H](C(=O)N[C@@H](CCC(N)=O)C(=O)N[C@@H](Cc1c[nH]c2ccccc12)C(=O)N[C@@H](CC(C)C)C(=O)N[C@@H](CC(C)C)C(=O)N[C@@H](CCCCNC(=O)CC[C@H](NC(=O)CC[C@H](NC(=O)COCCOCCNC(=O)COCCOCCNC(=O)CC[C@H](NC(=O)CCCCCCCCCCCCCCCCC(=O)O)C(=O)O)C(=O)O)C(=O)O)C(=O)N[C@H](C(=O)N1CCC[C@H]1C(=O)O)[C@@H](C)O)C(C)C [Example 82, N^ε28-[(4S)-4-carboxy-4-[[(4S)-4-carboxy-4-[[2-[2-[2-[[2-[2-[2-[[(4S)-4-carboxy-4-(17-carboxyheptadecanoylamino)butanoyl]amino]ethoxy]ethoxy]acetyl]amino]ethoxy]ethoxy]acetyl]amino]butanoyl]amino]butanoyl]-[Leu^27,Lys^28]-Glucagonyl-Pro] | 0.128
7 | CC(C)C[C@H](NC(=O)[C@H](Cc1ccc(O)cc1)NC(=O)[C@H](CCCCN)NC(=O)[C@H](CO)NC(=O)[C@H](Cc1ccc(O)cc1)NC(=O)[C@H](CC(=O)O)NC(=O)[C@H](CO)NC(=O)[C@@H](NC(=O)[C@H](Cc1ccccc1)NC(=O)[C@@H](NC(=O)CNC(=O)[C@H](CCC(N)=O)NC(=O)[C@H](CO)NC(=O)[C@@H](N)Cc1c[nH]cn1)[C@@H](C)O)[C@@H](C)O)C(=O)N[C@@H](CC(=O)O)C(=O)N[C@@H](CO)C(=O)N[C@@H](CCCNC(=N)N)C(=O)N[C@@H](CCCNC(=N)N)C(=O)N[C@@H](C)C(=O)N[C@@H](CCC(N)=O)C(=O)N[C@@H](CC(=O)O)C(=O)N[C@@H](Cc1ccccc1)C(=O)N[C@H](C(=O)N[C@@H](CCC(N)=O)C(=O)N[C@@H](Cc1c[nH]c2ccccc12)C(=O)N[C@@H](CC(C)C)C(=O)N[C@@H](CCCCNC(=O)CC[C@H](NC(=O)CC[C@H](NC(=O)COCCOCCNC(=O)COCCOCCNC(=O)CC[C@H](NC(=O)CCCCCCCCCCCCCCCCC(=O)O)C(=O)O)C(=O)O)C(=O)O)C(=O)N[C@@H](CC(N)=O)C(=O)N1CCC[C@H]1C(=O)O)C(C)C [Example 85, N^ε27-[(4S)-4-carboxy-4-[[(4S)-4-carboxy-4-[[2-[2-[2-[[2-[2-[2-[[(4S)-4-carboxy-4-(17-carboxyheptadecanoylamino)butanoyl]amino]ethoxy]ethoxy]acetyl]amino]ethoxy]ethoxy]acetyl]amino]butanoyl]amino]butanoyl]-[Lys^27,Pro^29]-Glucagon] | 1.17
